Measured values reported in BindingDB's records for doi:10.7270/Q24Q7SF3 (Burnham Center For Chemical Genomics, 2010).

Biological target: T1, Alkaline phosphatase, tissue-nonspecific isozyme (Homo sapiens, UniProt P05186)
T1 sequence (P05186 whole entry): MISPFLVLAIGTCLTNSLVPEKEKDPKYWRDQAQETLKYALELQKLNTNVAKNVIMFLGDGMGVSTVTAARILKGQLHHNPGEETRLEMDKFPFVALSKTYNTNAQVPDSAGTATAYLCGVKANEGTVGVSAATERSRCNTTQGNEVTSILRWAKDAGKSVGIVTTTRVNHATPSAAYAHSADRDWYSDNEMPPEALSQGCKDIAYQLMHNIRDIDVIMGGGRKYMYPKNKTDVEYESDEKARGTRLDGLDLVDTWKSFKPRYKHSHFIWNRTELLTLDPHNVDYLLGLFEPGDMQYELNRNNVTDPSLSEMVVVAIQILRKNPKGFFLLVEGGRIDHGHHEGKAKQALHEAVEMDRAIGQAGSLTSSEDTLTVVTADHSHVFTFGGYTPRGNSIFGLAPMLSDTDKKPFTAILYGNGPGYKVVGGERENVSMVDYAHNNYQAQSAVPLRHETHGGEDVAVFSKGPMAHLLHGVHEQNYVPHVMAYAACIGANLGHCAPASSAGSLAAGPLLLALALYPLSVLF
Assay: activation of tissue-nonspecific alkaline phosphatase – biochemical, TNAP isozyme, human IAP uHTS hits, selectivity assay for human IAP activator project, dose response (AID 488886)

Row | EC50 | SMILES
1 | 24.1 µM | Cc1cc(Br)ccc1SCC(=O)OCC(=O)C(C#N)c1nc2ccccc2[nH]1 (stereo not drawn) [2-[(4-bromo-2-methylphenyl)thio]acetic acid [3-cyano-3-(1,3-dihydrobenzimidazol-2-ylidene)-2-oxopropyl] ester]
2 | 11.4 µM | C=c1[nH]n(-c2nc3ccccc3[nH]2)c(=O)c1=CN(C)C [(4E)-2-(1H-benzimidazol-2-yl)-4-(dimethylaminomethylidene)-5-methyl-pyrazol-3-one]
3 | 17.7 µM | CCc1ccc(CN=Nc2ncnc3nc[nH]c23)cc1 [MLS000419199]
4 | 45 µM | Cn1c(C(C#N)C(=O)c2ccc(Br)s2)nc2ccccc21 (stereo not drawn) [MLS001167394]
5 | 8.88 µM | COc1cccc(C=NNC(=O)c2[nH][nH]c(=O)c2C)c1O [N'-[(E)-(5-methoxy-6-oxidanylidene-cyclohexa-2,4-dien-1-ylidene)methyl]-4-methyl-5-oxidanylidene-1,4-dihydropyrazole-3-carbohydrazide]
6 | > 100 µM | O=c1c2ccccc2nc(N=NCc2c(O)ccc3ccccc23)n1O [SMR000145705]
7 | > 100 µM | O=Nc1[nH]c(=O)c(CC(=O)c2ccccc2)nc1NO [SMR000539633]
8 | 22.3 µM | CCOC(=O)c1c(C)[nH]c(C(=O)N/N=C/C2C=C([N+](=O)[O-])C=CC2=O)c1C (stereo not drawn) [ethyl 2,4-dimethyl-5-[[[(E)-(3-nitro-6-oxocyclohexa-2,4-dien-1-ylidene)methyl]amino]carbamoyl]-1H-pyrrole-3-carboxylate]
